What all share (type): physicochemical
A short description of series [1]: Solubility of the allosteric effector compound in water and stabilizing agent solutions. The procedure: (§1) The pKa for 2-[4-[2-[(3,5-dimethylphenyl)amino]-2-oxoethyl]phenoxy]-2-methyl-propionic acid is about 3.5. Accordingly, there is an appreciable solubility at a pH of 7. The solubility of the sodium salt of 2-[4-[2-[(3,5-dimethylphenyl)amino]-2-oxoethyl]phenoxy]-2-methyl-propionic acid at a pH of 7 is about 50 mg/ml. […] It is thought that the addition of a stabilizing agent maintains the integrity of this small aggregate-like species.
This unforeseen problem of formation of particulate matter at concentrations beneath the solubility of the compound is solved by the addition of a stabilizing agent. The effect of the stabilizing agent is to prevent or minimize the formation of sub-visual particulates. In some embodiments, the stabilizing agent may also act as a buffer to stabilize the pH of the solution. In other embodiments, the stabilizing agent and buffering agent are different. The stabilizing agent acts to prevent the formation of significant amounts of sub-visual particulate matter, particularly after heat sterilization. The result is a formulation that can be terminally sterilized, have a long shelf life, and meet the USP 25 <788> sub-visual particulate matter requirements. Without being bound by theory, it is believed that stabilization of pH is one factor contributing to stabilization of the formulation; however, the pH of the solution alone is insufficient to stabilize the solutions. […] If necessary, the pH of the solution can be adjusted to a pH of at least about 6, preferably from about 6 to about 11. More preferably, the pH is adjusted to about 6.5 to about 9.0. More preferably, the pH is adjusted to about 7.5 to 8.5. The pH may be adjusted by the addition of any appropriate acid or base. Suitable acids may be amino acids, carboxylic acids, phosphoric acid, hydrochloric acid or other acids suitable for pharmaceutical preparations. Suitable bases include, sodium hydroxide or other bases suitable for pharmaceutical preparations.
Accordingly, stabilizing agents having an amine group are contemplated within the scope of this invention.

Another series is described as follows: pKa. The protocol:
as §1

Series [2] can be described thus: Chemical and physical (precipitate) stability of the formulation. The protocol: as §1
The allosteric modifying compound is chemically and physically stable between a pH of about 6 and about 11. Preferably, the composition has a pH of at least about 6. More preferably, the composition has a pH ranging from about 6 to about 11. Most preferably, the composition has a pH ranging from about 6.5 to about 9.0.
The composition of the present invention is chemically stable and stable with respect to the formation of particulate matter for at least about thirty days. This makes the composition particularly useful at the administration site because no additional steps, such as filtering the composition, are necessary prior to administration to a patient. Time is time after sterilization.

Setting [3] is: 20 mg/mL (58.7 mmol/L), pH 7.5, no stabilizing compound, heat sterilized.

In brackets after ≈: the same amount, converted by molar mass. Like-named read-outs stand apart in the source and are kept apart here.

For orientation: solubility means how much of the substance goes into solution per volume. A word on the pKa: it is the pH at which an ionisable group is half protonated. High values mean a weaker acid or stronger base, low ones a stronger acid or weaker base. In the case of `Cc1cc(C)cc(NC(=O)Cc2ccc(OC(C)(C)C(=O)O)cc2)c1` [2-[4-[2-[(3,5-dimethylphenyl)amino]-2-oxoethyl]phenoxy]-2-methyl-propionic acid], the solubility in series [1] (aqueous buffer, 0.5 M arginine solution, 23° C., pH 7.2-7.5, read-out: solubility) was 155 mg/mL (≈ 454 mM); in series [1] (aqueous buffer, 0.5 M tris solution, 23° C., pH 7-8, read-out: solubility) it was 99.9 mg/mL (≈ 293 mM); in series [1] (aqueous buffer, 100-200 mM meglumine solutions, 23° C., pH 7.5, read-out: increase in solubility) it was approximately 12 mg/mL (≈ 35.1 mM); in series [1] (in water, 23° C., read-out: solubility) it was approximately 44 mg/mL (≈ 129 mM). In addition, in the series “pKa”, the pKa was approximately 3.5. The chemical degradation entry in series [2] (setting [3]) was “stable to chemical degradation”. Further, in series [2] (setting [3]), the “precipitate formation after heat sterilization” value is “developed a precipitate of the allosteric modifier within one week after sterilization”. Besides, the “precipitation / subvisual particulate formation in solution” value in series [2] (20 mg/ml, pH about 7, 25° C.) is “begins to precipitate out of solution, forming subvisual particulate”.
On to `Cc1cc(C)cc(NC(=O)Cc2ccc(OC(C)(C)C(=O)[O-])cc2)c1.[Na+]` [sodium salt of 2-[4-[2-[(3,5-dimethylphenyl)amino]-2-oxoethyl]phenoxy]-2-methyl-propionic acid], for which, in series [1] (pH 7, aqueous buffer, pH of 7, read-out: solubility), the solubility was approximately 50 mg/mL.

The values are drawn from patent publication US20030232887A1, “Preparation and use of a stable formulation of allosteric effector compounds” (priority 2002, published 2003).
